Data reported in ChEMBL document CHEMBL1201862, “PubChem BioAssay data set” (2004).
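Cultured in 96-well plates, cells were exposed to test compound for 48 hours across five concentrations. The concentration for 50% growth inhibition is given as GI50.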 Calls of active or inactive are those of the source. Rule as the data show it: active = GI50 up to about 1.1 µM and inactive = higher.

How the values were obtained:
Assay in all cases: NCI anticancer screen, dose series, 48 h
786-0 = test system: 786-0
A498 = test system: A498
A549 = test system: A549
ACHN = test system: ACHN
CAKI-1 = test system: CAKI-1
CCRF-CEM = test system: CCRF-CEM
COLO 205 = test system: COLO 205
DU-145 = test system: DU-145
EKVX = test system: EKVX
HCC 2998 = test system: HCC 2998
HCT-15 = test system: HCT-15
HL-60 = test system: HL-60
HOP-62 = test system: HOP-62
HOP-92 = test system: HOP-92
HT-29 = test system: HT-29
Hs-578T = test system: Hs-578T
IGROV-1 = test system: IGROV-1
K562 = test system: K562
KM12 = test system: KM12
LOX IMVI = test system: LOX IMVI
M14 = test system: M14
MCF7 = test system: MCF7
MDA-MB-231 = test system: MDA-MB-231
MDA-MB-435 = test system: MDA-MB-435
MDA-N = test system: MDA-N
MOLT-4 = test system: MOLT-4
Malme-3M = test system: Malme-3M
NCI-H226 = test system: NCI-H226
NCI-H23 = test system: NCI-H23
NCI-H460 = test system: NCI-H460
NCI-H522 = test system: NCI-H522
NCI/ADR-RES = test system: NCI/ADR-RES
OVCAR-3 = test system: OVCAR-3
OVCAR-4 = test system: OVCAR-4
OVCAR-5 = test system: OVCAR-5
OVCAR-8 = test system: OVCAR-8
PC-3 = test system: PC-3
RPMI-8226 = test system: RPMI-8226
RXF 393 = test system: RXF 393
SF-268 = test system: SF-268
SF-295 = test system: SF-295
SF-539 = test system: SF-539
SK-MEL-28 = test system: SK-MEL-28
SK-MEL-2 = test system: SK-MEL-2
SK-MEL-5 = test system: SK-MEL-5
SK-OV-3 = test system: SK-OV-3
SNB-19 = test system: SNB-19
SNB-75 = test system: SNB-75
SW-620 = test system: SW-620
T47D = test system: T47D
TK-10 = test system: TK-10
U-251 = test system: U-251
UACC-257 = test system: UACC-257
UACC-62 = test system: UACC-62
UO-31 = test system: UO-31

COC(=O)C1C(=O)N(C)C(=O)N2CCCC12 (stereo not given)
GI50 (786-0): > 100 µM (inactive) | GI50 (A498): > 100 µM (inactive) | GI50 (A549): > 100 µM (inactive) | GI50 (ACHN): > 100 µM (inactive) | GI50 (CAKI-1): > 100 µM (inactive) | GI50 (CCRF-CEM): > 100 µM (inactive) | GI50 (COLO 205): > 100 µM (inactive) | GI50 (DU-145): > 100 µM (inactive) | GI50 (EKVX): > 100 µM (inactive) | GI50 (HCC 2998): > 100 µM (inactive) | GI50 (HCT-15): > 100 µM | GI50 (HL-60): > 100 µM (inactive) | GI50 (HOP-62): > 100 µM (inactive) | GI50 (HOP-92): > 100 µM (inactive) | GI50 (HT-29): > 100 µM (inactive) | GI50 (Hs-578T): > 100 µM (inactive) | GI50 (IGROV-1): > 100 µM (inactive) | GI50 (K562): > 100 µM (inactive) | GI50 (KM12): > 100 µM (inactive) | GI50 (LOX IMVI): > 100 µM (inactive) | GI50 (M14): > 100 µM (inactive) | GI50 (MCF7): > 100 µM (inactive) | GI50 (MDA-MB-231): > 100 µM (inactive) | GI50 (MDA-MB-435): > 100 µM (inactive) | GI50 (MDA-N): > 100 µM (inactive) | GI50 (MOLT-4): > 100 µM (inactive) | GI50 (Malme-3M): > 100 µM (inactive) | GI50 (NCI-H226): > 100 µM (inactive) | GI50 (NCI-H23): > 100 µM (inactive) | GI50 (NCI-H460): > 100 µM (inactive) | GI50 (NCI-H522): > 100 µM (inactive) | GI50 (NCI/ADR-RES): > 100 µM (inactive) | GI50 (OVCAR-3): > 100 µM (inactive) | GI50 (OVCAR-4): > 100 µM (inactive) | GI50 (OVCAR-5): > 100 µM (inactive) | GI50 (OVCAR-8): > 100 µM (inactive) | GI50 (PC-3): > 100 µM (inactive) | GI50 (RPMI-8226): > 100 µM (inactive) | GI50 (RXF 393): 71.8 µM (inactive) | GI50 (SF-268): > 100 µM (inactive) | GI50 (SF-295): > 100 µM (inactive) | GI50 (SF-539): > 100 µM (inactive) | GI50 (SK-MEL-28): 1.4 µM (inactive) | GI50 (SK-MEL-2): > 100 µM (inactive) | GI50 (SK-MEL-5): > 100 µM (inactive) | GI50 (SK-OV-3): > 100 µM (inactive) | GI50 (SNB-19): > 100 µM (inactive) | GI50 (SNB-75): > 100 µM (inactive) | GI50 (SW-620): > 100 µM (inactive) | GI50 (T47D): > 100 µM (inactive) | GI50 (TK-10): > 100 µM (inactive) | GI50 (U-251): > 100 µM (inactive) | GI50 (UACC-257): > 100 µM (inactive) | GI50 (UACC-62): > 100 µM (inactive) | GI50 (UO-31): > 100 µM (inactive)
